This note sets out measurements from BindingDB's records for doi:10.1021/bi051886s (Johnson & Johnson Pharmaceutical, 2006).

Assay in all cases: Protease Inhibition Assay
In assay [1] the target is T1, Dimer of Gag-Pol polyprotein [482-580,I502K,I528M,T553A] (Human immunodeficiency virus 1, UniProt P24740, I502K/I528M/T553A).
T1 construct: 482-580
The note with it: pH 4.7; 37 °C.

In assay [2] the target is T2, Dimer of Gag-Pol polyprotein [501-599,V583F] (Human immunodeficiency virus 1, UniProt P03367, V583F).
T2 construct: 501-599
The note with it: pH 4.7; 37 °C.

Assay [3] has as its target T3, Dimer of Gag-Pol polyprotein [490-588,L523I,E525D,M526I,I544V,L553H,H559K,L579M] (Human immunodeficiency virus 1, UniProt P05959, E525D/H559K/I544V/L523I/L553H/L579M/M526I).
T3 construct: 490-588

Assay [4] concerns the target T4, Dimer of Gag-Pol polyprotein [482-580,I502K,I528M,T553A,V564F] (Human immunodeficiency virus 1, UniProt P24740, I502K/I528M/T553A/V564F).
T4 construct: 482-580

The target of assay [5] is T5, Dimer of Gag-Pol polyprotein [490-588,L523I,E525D,M526I,I544V,L553H,H559K,V572F,L579M] (Human immunodeficiency virus 1, UniProt P05959, E525D/H559K/I544V/L523I/L553H/L579M/M526I/V572F).
T5 construct: 490-588

The target of assay [6] is T6, Dimer of Gag-Pol polyprotein [501-599] (Human immunodeficiency virus 1, UniProt P03367).
T6 construct: 501-599
The note with it: pH 4.7; 37 °C.

On to `COC(=O)N[C@H](C(=O)N[C@@H](Cc1ccccc1)[C@@H](O)CN(Cc1ccc(-c2ccccn2)cc1)NC(=O)[C@@H](NC(=O)OC)C(C)(C)C)C(C)(C)C` [CGP 73547], for which the Ki was determined as 0.24 nM in assay [1]; 0.56 nM in assay [2]; 1.1 nM in assay [3]; 0.57 nM in assay [4]; 0.7 nM in assay [5].

Consider `Cc1c(O)cccc1C(=O)N[C@@H](CSc1ccccc1)[C@H](O)CN1C[C@H]2CCCC[C@H]2C[C@H]1C(=O)NC(C)(C)C` [Viracept], for which the Ki stood at 17 nM in assay [3] and 146 nM in assay [5].

Take `CC(C)CN(C[C@@H](O)[C@H](Cc1ccccc1)NC(=O)O[C@H]1CCOC1)S(=O)(=O)c1ccc(N)cc1` [VX-478]: the Ki came out at 0.4 nM in assay [1], 1.4 nM in assay [3], 1.2 nM in assay [4] and 23 nM in assay [5].

On to `Cc1cccc(C)c1OCC(=O)N[C@@H](Cc1ccccc1)[C@@H](O)C[C@H](Cc1ccccc1)NC(=O)[C@H](C(C)C)N1CCCNC1=O` [(2S)-N-[(2S,4S,5S)-5-[2-(2,6-dimethylphenoxy)acetamido]-4-hydroxy-1,6-diphenylhexan-2-yl]-3-methyl-2-(2-oxo-1,3-diazinan-1-yl)butanamide], for which the Ki was determined as 0.05 nM in assay [6]; 0.019 nM in assay [1]; 0.2 nM in assay [2]; 0.5 nM in assay [3]; 0.48 nM in assay [4]; 9 nM in assay [5].

As to `CC(C)(C)NC(=O)[C@@H]1CN(Cc2cccnc2)CCN1C[C@@H](O)C[C@@H](Cc1ccccc1)C(=O)N[C@H]1c2ccccc2C[C@H]1O` [Crixivan], the Ki in assay [1] is 6.9 nM; in assay [3], 42 nM; in assay [4] it was 108 nM; in assay [5], 1620 nM.

As to `CC(C)(C)NC(=O)[C@@H]1C[C@@H]2CCCC[C@@H]2CN1C[C@@H](O)[C@H](Cc1ccccc1)NC(=O)[C@H](CC(N)=O)NC(=O)c1ccc2ccccc2n1` [SQV], the Ki in assay [1] turned out to be 1.8 nM; in assay [3], 48 nM; in assay [4], 0.43 nM; in assay [5], 24 nM.
